{
  "source": "patent US6893829B2",
  "about": "“Human leukocyte 12-lipoxygenase and its role in the pathogenesis of disease states” (City of Hope, priority 1992, dated 2005)",
  "key": {"JNK": {"test_system": "JNK", "test": "JNK activity in CHO-AT1a cells", "type": "cell-based, Chinese hamster", "conditions": "AII 10^−7M", "experimental": "The plasmid pGEX-cJun 1/79 (Dept. Pharmacol. UCSD, La Jolla) is a GST-cJun (1-79) expression vector encoding amino acids (1-79) of cJun. The GST fusion protein expression vector was transformed into E. Coli. Protein was induced with 0.1 mM IPTG and purified by affinity binding to glutathione-agarose beads. Unstimulated or stimulated cells were lysed into WCEB (25 mM HEPES, pH 7.7, 03.M Nacl, 15 mM MgCl2, 02.mM EDTA and 0.1% triton X-100). About 50 μg protein extract was incubated with GST-cJun+GSH agarose overnight at 4° C. Phosphorylation was carried out at 30° C. for 20 minutes in the presence of 20 mM HEPES, pH 7.5, 20 mM b-glycerophosphate, 10 mM p-nitrophenolphosphate, 10 mM MgCl2, 10 mM DDT, 50 μg Na3VO4, 20 μM ATP (cold) and about 0.5 μl of new gamma ^32P-ATP. After boiling with electrophoresis sample buffer, the supernatants were analyzed on 12% SDS-PAGE. JNK activity was also measured by immunoprecipitation method using an anti-JNK antibody (Parmingen Co., San Diego) and then activities were measured using 2 μg of GST-cJun (1-79) as substrate as described in Cell, 81:1147-1157 (1995).\nIt has been discovered that the administration of AII results in biphasic activation of MAP kinase (all of the MAP kinase experiments were conducted in CHO-AT1a cells—AII receptor AT1a cDNA transfected Chinese hamster ovary cells)."}, "[1]": {"test_system": "VEGF in vascular smooth muscle cells (VSMC)", "test": "VEGF protein, mRNA and secretion in VSMC (Western, Northern, EIA)", "type": "cell-based, Porcine and human", "experimental": "In addition to the work reflected in FIGS. 8-10, it has now been discovered that AII, 12-HETE and hyperglycemia (HG) increase VEGF production in vascular smooth muscle cells (VSMC). Porcine and human VSMC were cultured for at least two passages under normal glucose (NG, 5.5 mM) or under HG conditions. VEGF protein expression was determined by Western blotting and VEGF mRNA by Northern blots. HG alone increased the level of VEGF mRNA (2.8-fold) and protein (3.2-fold). […] In addition, HG increased the secretion of VEGF into the medium as measured by a specific EIA (56.2±4 ng/ml NG vs 73±5 HG, p<0.02)."}, "12-LO activity in HSMC": {"test_system": "12-LO activity in HSMC", "test": "12-HETE release and cell-associated 12-HETE in HSMC (HPLC/RIA)", "type": "cell-based, human", "experimental": "FIG. 3A illustrates the effect of AII on 12-HETE release by HSMC. HSMC were grown to confluency. Serum was removed and cells were incubated in media 199 containing 0.4% fetal bovine serum (FBS) and 0.2% BSA for 18 hours. Cells were then washed with DME media and incubated for 20 minutes in DME media containing 0.2% BSA. AII was added to the cells for five and ten minutes at the concentrations of 10^−9 and 10^−8 mol/L. Media were collected for HETE assay. • *p<0.05 vs control n=4\nFIG. 3B illustrates the effect of AII on cell-associated 12-HETE levels in HSMC. After collecting supernatants, cells were washed with ice-cold PBS and harvested by scraping for the assay of cell-associated HETEs. • *p<0.02 vs control n=4\nHSMC and HAEC monolayers were washed twice with ice-cold PBS and then processed for RNA extraction or western analysis as described below. For hydroxyeicosatetraenoic acid (HETE) assay, approximately 24 hours prior to an experiment, the medium was replaced with medium 199 containing 0.4% FBS and 0.2% BSA.\nThese assays were performed using previously published methods (10,11). Briefly, 12- and 15-HETE are extracted from supernatants and cells on C18 mini columns (Analytichem International, CA) and measured using our validated reverse phase gradient HPLC and (RIA) methods.\nAnother major aspect of this invention is the discovery that AII increases the activity and expression of 12-LO mRNA and protein in HSMC."}, "[2]": {"conditions": "AII 10^−7M, 4 hours, cells cultured in HG"}},
  "data": [
    {"substance": "Angiotensin II (DRVYIHPF; Angiotensin-2; UniProt P01019 25-32, looked up) [AII, peptide hormone, added to cells as stimulus]", "values": [
      {"measurement": "stimulation of JNK activity", "setting": "JNK", "value": "peaks at 30 minutes and remains sustained for 1 hour"},
      {"measurement": "increase in VEGF secretion (EIA)", "setting": "[1]", "value": 1.24, "unit": "fold"},
      {"measurement": "VEGF mRNA expression increase", "setting": "[1]; [2]", "value": 1.4, "unit": "fold"},
      {"measurement": "VEGF protein expression increase", "setting": "[1]; [2]", "value": 2.2, "unit": "fold"},
      {"measurement": "release of 12-HETE", "setting": "12-LO activity in HSMC; AII 10^−8M, 5 minute incubation, serum free media, control 599±105", "value": "1467±277 pg per mg of protein"},
      {"measurement": "release of 12-HETE", "setting": "12-LO activity in HSMC; AII 10^−8 mol/L, ten minute incubation", "value": "significantly simulated the release of 12-HETE"},
      {"measurement": "release of 12-HETE", "setting": "12-LO activity in HSMC; AII 10^−9 mol/L, 5 minute incubation, serum free media, control 599±105", "value": "1296±262 pg per mg of protein"},
      {"measurement": "cell-associated 12-HETE levels", "setting": "12-LO activity in HSMC; HSMC, FIG. 3B", "value": "significantly also increased"}
    ]}
  ]
}
